This note sets out measurements from the NIST ThermoML archive (doi:10.1016/j.fluid.2014.11.020).

Numbers after ± are expanded uncertainties.

The nature of this series: activity coefficient (dimensionless); of the first substance listed, at infinite dilution; xn = mol fraction of the nth substance listed. As to conditions: Liquid, Chromatography, x1 = 0.

In the case of `C1CCCCCC1` [cycloheptane] + CCCCCCCCn1cc[n+](COCCCOC[n+]2ccn(CCCCCCCC)c2C)c1C.O=S(=O)([N-]S(=O)(=O)C(F)(F)F)C(F)(F)F.O=S(=O)([N-]S(=O)(=O)C(F)(F)F)C(F)(F)F, the activity coefficient (323.15 K) stood at 5.84 ± 0.4, the activity coefficient (333.15 K) amounted to 7.77 ± 0.53 and the activity coefficient (343.15 K) stood at 10.2 ± 0.7.
As for `C1CCCCCC1` [cycloheptane] + CCCOC[n+]1ccc(N(C)C)cc1.O=S(=O)([N-]S(=O)(=O)C(F)(F)F)C(F)(F)F, the activity coefficient was 18.6 ± 1.3 (323.15 K), 24.6 ± 1.7 (333.15 K) and 31.7 ± 2.2 (343.15 K).
The matching figures for `C1CCCCCC1` [cycloheptane] + CCCOC[n+]1ccn(C)c1.F[B-](F)(F)F: 153 ± 11, 240 ± 16 and 245 ± 17.
In the same order, the values of `C1CCCCCC1` [cycloheptane] + CCCOC[n+]1ccn(C)c1.N#C[N-]C#N are 79.2 ± 5.4, 105 ± 7.2 and 133 ± 9.1.
`C1CCCCCC1` [cycloheptane] + CCCOC[n+]1ccn(C)c1.O=S(=O)([N-]S(=O)(=O)C(F)(F)F)C(F)(F)F: the activity coefficient by setting is: (323.15 K) 27.2 ± 1.9; (333.15 K) 35.8 ± 2.5; (343.15 K) 46.1 ± 3.2.
In the same order, the values of `C1CCCCCC1` [cycloheptane] + CCCOC[n+]1ccn(Cc2ccccc2)c1.N#C[N-]C#N are 35.8 ± 2.5, 47.2 ± 3.2 and 56.3 ± 3.9.
For the compound `C1CCCCCC1` [cycloheptane] + CCCOC[n+]1ccn(Cc2ccccc2)c1.O=S(=O)([N-]S(=O)(=O)C(F)(F)F)C(F)(F)F, the activity coefficient is 13.4 ± 0.91 (323.15 K), 15.8 ± 1.1 (333.15 K) and 20.5 ± 1.4 (343.15 K).
In the same order, the values of `C1CCCCCC1` [cycloheptane] + CN(C)c1cc[n+](COCCCOC[n+]2ccc(N(C)C)cc2)cc1.O=S(=O)([N-]S(=O)(=O)C(F)(F)F)C(F)(F)F.O=S(=O)([N-]S(=O)(=O)C(F)(F)F)C(F)(F)F are 27 ± 1.9, 34.9 ± 2.4 and 42.8 ± 2.9.
The matching figures for `C1CCCCCC1` [cycloheptane] + Cn1cc[n+](COCCCOC[n+]2ccn(C)c2)c1.O=S(=O)([N-]S(=O)(=O)C(F)(F)F)C(F)(F)F.O=S(=O)([N-]S(=O)(=O)C(F)(F)F)C(F)(F)F: 41.5 ± 2.8, 51.9 ± 3.5 and 63.5 ± 4.3.
As to `C1CCCCCC1` [cycloheptane] + N#C[N-]C#N.N#C[N-]C#N.c1ccc(Cn2cc[n+](COCCCOC[n+]3ccn(Cc4ccccc4)c3)c2)cc1, the activity coefficient was determined as 117 ± 8 (323.15 K), 139 ± 9.6 (333.15 K) and 171 ± 12 (343.15 K).
In the same order, the values of `C1CCCCC1` [cyclohexane] + CCCCCCCCn1cc[n+](COCCC)c1C.N#C[N-]C#N are 4.06 ± 0.28, 3.85 ± 0.26 and 3.82 ± 0.26.
For `C1CCCCC1` [cyclohexane] + CCCCCCCCn1cc[n+](COCCCOC[n+]2ccn(CCCCCCCC)c2C)c1C.N#C[N-]C#N.N#C[N-]C#N, the activity coefficient by setting is: (323.15 K) 4.29 ± 0.29; (333.15 K) 3.86 ± 0.26; (343.15 K) 3.71 ± 0.25.
In the same order, the values of `C1CCCCC1` [cyclohexane] + CCCCCCCCn1cc[n+](COCCCOC[n+]2ccn(CCCCCCCC)c2C)c1C.O=S(=O)([N-]S(=O)(=O)C(F)(F)F)C(F)(F)F.O=S(=O)([N-]S(=O)(=O)C(F)(F)F)C(F)(F)F are 2.41 ± 0.16, 2.22 ± 0.15 and 2.11 ± 0.14.
For `C1CCCCC1` [cyclohexane] + CCCOC[n+]1ccc(N(C)C)cc1.O=S(=O)([N-]S(=O)(=O)C(F)(F)F)C(F)(F)F, the activity coefficient by setting is: (323.15 K) 7.06 ± 0.48; (333.15 K) 6.83 ± 0.47; (343.15 K) 6.37 ± 0.43.
In the same order, the values of `C1CCCCC1` [cyclohexane] + CCCOC[n+]1ccn(C)c1.F[B-](F)(F)F are 46.7 ± 3.2, 40.6 ± 2.8 and 36.4 ± 2.5.
As to `C1CCCCC1` [cyclohexane] + CCCOC[n+]1ccn(C)c1.N#C[N-]C#N, the activity coefficient was determined as 26.6 ± 1.8 (323.15 K), 24.3 ± 1.7 (333.15 K) and 22.7 ± 1.6 (343.15 K).
In the case of `C1CCCCC1` [cyclohexane] + CCCOC[n+]1ccn(C)c1.O=S(=O)([N-]S(=O)(=O)C(F)(F)F)C(F)(F)F, the activity coefficient is, setting by setting: (323.15 K) 9.55 ± 0.65; (333.15 K) 9.25 ± 0.63; (343.15 K) 9.07 ± 0.62.
The matching figures for `C1CCCCC1` [cyclohexane] + CCCOC[n+]1ccn(Cc2ccccc2)c1.N#C[N-]C#N: 13.1 ± 0.9, 12.3 ± 0.84 and 11.5 ± 0.79.
On to `C1CCCCC1` [cyclohexane] + CCCOC[n+]1ccn(Cc2ccccc2)c1.O=S(=O)([N-]S(=O)(=O)C(F)(F)F)C(F)(F)F, for which the activity coefficient is 4.98 ± 0.34 (323.15 K), 4.29 ± 0.29 (333.15 K) and 3.99 ± 0.27 (343.15 K).
Consider `C1CCCCC1` [cyclohexane] + CN(C)c1cc[n+](COCCCOC[n+]2ccc(N(C)C)cc2)cc1.O=S(=O)([N-]S(=O)(=O)C(F)(F)F)C(F)(F)F.O=S(=O)([N-]S(=O)(=O)C(F)(F)F)C(F)(F)F, for which the activity coefficient by setting is: (323.15 K) 10.7 ± 0.73; (333.15 K) 9.32 ± 0.64; (343.15 K) 8.67 ± 0.59.
Consider `C1CCCCC1` [cyclohexane] + Cn1cc[n+](COCCCOC[n+]2ccn(C)c2)c1.O=S(=O)([N-]S(=O)(=O)C(F)(F)F)C(F)(F)F.O=S(=O)([N-]S(=O)(=O)C(F)(F)F)C(F)(F)F, for which the activity coefficient is, setting by setting: (323.15 K) 17.6 ± 1.2; (333.15 K) 12.4 ± 0.85.
`CCCCCCCCCC` [decane] + CCCCCCCCn1cc[n+](COCCC)c1C.N#C[N-]C#N: the activity coefficient is, setting by setting: (323.15 K) 17 ± 1.2; (333.15 K) 15.5 ± 1.1; (343.15 K) 14.9 ± 1.
In the same order, the values of `CCCCCCCCCC` [decane] + CCCCCCCCn1cc[n+](COCCC)c1C.O=S(=O)([N-]S(=O)(=O)C(F)(F)F)C(F)(F)F are 8.9 ± 0.61, 8.47 ± 0.58 and 7.92 ± 0.54.
The matching figures for `CCCCCCCCCC` [decane] + CCCCCCCCn1cc[n+](COCCCOC[n+]2ccn(CCCCCCCC)c2C)c1C.N#C[N-]C#N.N#C[N-]C#N: 19.5 ± 1.3, 19.5 ± 1.3 and 17.8 ± 1.2.
Consider `CCCCCCCCCC` [decane] + CCCCCCCCn1cc[n+](COCCCOC[n+]2ccn(CCCCCCCC)c2C)c1C.O=S(=O)([N-]S(=O)(=O)C(F)(F)F)C(F)(F)F.O=S(=O)([N-]S(=O)(=O)C(F)(F)F)C(F)(F)F, for which the activity coefficient is, setting by setting: (323.15 K) 9.63 ± 0.66; (333.15 K) 8.73 ± 0.6; (343.15 K) 8.35 ± 0.57.
Take `CCCCCCCCCC` [decane] + CCCOC[n+]1ccc(N(C)C)cc1.O=S(=O)([N-]S(=O)(=O)C(F)(F)F)C(F)(F)F: the activity coefficient worked out at 41.1 ± 2.8 (323.15 K), 38.5 ± 2.6 (333.15 K) and 34.5 ± 2.4 (343.15 K).
In the case of `CCCCCCCCCC` [decane] + CCCOC[n+]1ccn(C)c1.F[B-](F)(F)F, the activity coefficient reads like this: (323.15 K) 635 ± 44; (333.15 K) 573 ± 39; (343.15 K) 500 ± 34.
Turning to `CCCCCCCCCC` [decane] + CCCOC[n+]1ccn(C)c1.N#C[N-]C#N, the activity coefficient is, setting by setting: (323.15 K) 372 ± 26; (333.15 K) 356 ± 24; (343.15 K) 287 ± 20.
For the compound `CCCCCCCCCC` [decane] + CCCOC[n+]1ccn(C)c1.O=S(=O)([N-]S(=O)(=O)C(F)(F)F)C(F)(F)F, the activity coefficient (323.15 K) came out at 69.6 ± 4.8, the activity coefficient (333.15 K) was found to be 60.5 ± 4.2 and the activity coefficient (343.15 K) was 53 ± 3.6.
In the same order, the values of `CCCCCCCCCC` [decane] + CCCOC[n+]1ccn(Cc2ccccc2)c1.F[B-](F)(F)F are 244 ± 17, 220 ± 15 and 178 ± 12.
Consider `CCCCCCCCCC` [decane] + CCCOC[n+]1ccn(Cc2ccccc2)c1.N#C[N-]C#N, for which the activity coefficient was determined as 144 ± 9.9 (323.15 K), 123 ± 8.4 (333.15 K) and 105 ± 7.2 (343.15 K).
With `CCCCCCCCCC` [decane] + CCCOC[n+]1ccn(Cc2ccccc2)c1.O=S(=O)([N-]S(=O)(=O)C(F)(F)F)C(F)(F)F, the activity coefficient reads like this: (323.15 K) 28.8 ± 2; (333.15 K) 23.2 ± 1.6; (343.15 K) 21.1 ± 1.4.
`CCCCCCCCCC` [decane] + CN(C)c1cc[n+](COCCCOC[n+]2ccc(N(C)C)cc2)cc1.O=S(=O)([N-]S(=O)(=O)C(F)(F)F)C(F)(F)F.O=S(=O)([N-]S(=O)(=O)C(F)(F)F)C(F)(F)F: the activity coefficient (323.15 K) turned out to be 79.5 ± 5.5, the activity coefficient (333.15 K) amounted to 71 ± 4.9 and the activity coefficient (343.15 K) stood at 63 ± 4.3.
For `CCCCCCCCCC` [decane] + Cn1cc[n+](COCCCOC[n+]2ccn(C)c2)c1.O=S(=O)([N-]S(=O)(=O)C(F)(F)F)C(F)(F)F.O=S(=O)([N-]S(=O)(=O)C(F)(F)F)C(F)(F)F, the activity coefficient turned out to be 141 ± 9.7 (323.15 K), 132 ± 9 (333.15 K) and 109 ± 7.5 (343.15 K).
The matching figures for `CCCCCCCCCC` [decane] + N#C[N-]C#N.N#C[N-]C#N.c1ccc(Cn2cc[n+](COCCCOC[n+]3ccn(Cc4ccccc4)c3)c2)cc1: 420 ± 29, 371 ± 25 and 321 ± 22.
In the same order, the values of `ClCCl` [dichloromethane] + CCCCCCCCn1cc[n+](COCCC)c1C.N#C[N-]C#N are 0.34 ± 0.03, 0.37 ± 0.03 and 0.37 ± 0.03.
Regarding `ClCCl` [dichloromethane] + CCCCCCCCn1cc[n+](COCCC)c1C.O=S(=O)([N-]S(=O)(=O)C(F)(F)F)C(F)(F)F, the activity coefficient by setting is: (323.15 K) 0.42 ± 0.04; (333.15 K) 0.43 ± 0.04; (343.15 K) 0.48 ± 0.04.
